Laboratory results as given in patent US5726186A, “Pentacyclic compounds, intermediates, processes, compositions, and methods” (Eli Lilly and Company, priority 1996, dated 1998).
pIC50: −log10 of the molar value.

Key:
[1] = test system: Serum Cholesterol; test: Serum cholesterol analysis in ovariectomized rats; type: in vivo, female Sprague Dawley rats (ovariectomized); settings: Rattus norvegicus, 96 h, oral, daily for 4 days, OVX rats, read-out: Serum Cholesterol (% decrease vs. OVX)
From the text: (§1) Seventy-five day old female Sprague Dawley rats (weight range of 200 to 225 g) were obtained from Charles River Laboratories (Portage, Mich.). The animals were either bilaterally ovariectomized (OVX) or exposed to a Sham surgical procedure at Charles River Laboratories, and then shipped after one week. Upon arrival, they were housed in metal hanging cages in groups of 3 or 4 per cage and had ad libitum access to food (calcium content approximately 0.5%) and water for one week. Room temperature was maintained at 22.2°±1.7° C. with a minimum relative humidity of 40%. The photoperiod in the room was 12 hours light and 12 hours dark.
(§2) Dosing Regimen Tissue Collection. After a one week acclimation period (therefore, two weeks post-OVX) daily dosing with test compound was initiated. 17a-ethynyl estradiol or the test compound were given orally, unless otherwise stated, as a suspension in 1% carboxymethylcellulose or dissolved in 20% cyclodextrin. Animals were dosed daily for 4 days. Following the dosing regimen, animals were weighed and anesthetized with a ketamine: Xylazine (2:1, V:V) mixture and a blood sample was collected by cardiac puncture. The animals were then sacrificed by asphyxiation with CO2, the uterus was removed through a midline incision, and a wet uterine weight was determined.
Cholesterol Analysis. Blood samples were allowed to clot at room temperature for 2 hours, and serum was obtained following centrifugation for 10 minutes at 3000 rpm. Serum cholesterol was determined using a Boehringer Mannheim Diagnostics high performance cholesterol assay. Briefly the cholesterol was oxidized to cholest-4-en-3-one and hydrogen peroxide. The hydrogen peroxide was then reacted with phenol and 4-aminophenazone in the presence of peroxidase to produce a p-quinone imine dye, which was read spectrophotemetrically at 500 nm. Cholesterol concentration was then calculated against a standard curve. The entire assay was automated using a Biomek Automated Workstation.
(§3) The data presented in the Tables 1 below reflects the response of 5 to 6 rats per treatment.

[2] = test system: MCF-7 breast adenocarcinoma cells; test: MCF-7 Proliferation Assay (tritiated thymidine); type: cell-based; settings: Homo sapiens, MCF7; MCF-7 cells, 48 hours, tritiated thymidine pulse 4 hours
Experimental: MCF-7 breast adenocarcinoma cells (ATCC HTB 22) were maintained in MEM (minimal essential medium, phenol red-free, Sigma, St. Louis, Mo.) supplimented with 10% fetal bovine serum […] (V/V), L-glutamine (2 mM), sodium pyruvate (1 mM), HEPES {(N-[2-hydroxyethyl]piperazine-N'-[2-ethanesulfonic acid]10 mM)}, non-essential amino acids and bovine insulin (1 ug/mL) (maintenance medium). Ten days prior to assay, MCF-7 cells were switched to maintenance medium supplemented with 10% dextran coated charcoal stripped fetal bovine serum (DCC-FBS) assay medium) in place of 10% FBS to deplete internal stores of steroids. MCF-7 cells were removed from maintenance flasks using cell dissociation medium (Ca++/Mg++ free HBSS (phenol red-free) supplemented with 10 mM HEPES and 2 mM EDTA). Cells were washed twice with assay medium and adjusted to 80,000 cells/mL. Approximately […] (8,000 cells) were added to flat-bottom microculture wells (Costar 3596) and incubated at 37° C. in a 5% CO2 humidified incubator for 48 hours to allow for cell adherence and equilibration after transfer. Serial dilutions of drugs or DMSO as a diluent control were prepared in assay medium and […] to triplicate microcultures followed by […] assay medium for a final volume of […]. After an additional 48 hours at 37° C. in a 5% CO2 humidified incubator, microcultures were pulsed with tritiated thymidine (1 uCi/well) for 4 hours. Cultures were terminated by freezing at -70° C. for 24 hours followed by thawing and harvesting of microcultures using a Skatron Semiautomatic Cell Harvester. Samples were counted by liquid scintillation using a Wallac BetaPlace b counter. Results in Table 3 below show the IC50 for certain compounds of the present invention.

[3] = test system: uterus; test: Wet uterine weight in ovariectomized rats (post-menopausal model); type: in vivo, female Sprague Dawley rats (ovariectomized); settings: Rattus norvegicus, 96 h, oral, daily for 4 days, OVX rats, read-out: Uterine Weight (% increase vs. OVX)
Experimental: In the examples illustrating the methods, a post-menopausal model was used in which effects of different treatments upon circulating lipids were determined.
as §1, §2, §3

[4] = test system: Uterine Eosinophil Peroxidase (EPO); test: Uterine Eosinophil Peroxidase (EPO) Assay; type: in vivo, female Sprague Dawley rats (ovariectomized); set-up: Uterine EPO (V. max): unit not given here; settings: oral, daily for 4 days, OVX rats, 450 nm
From the text: as §1, §2
Uterine Eosinophil Peroxidase (EPO) Assay. Uteri were kept at 4° C. until time of enzymatic analysis. The uteri were then homogenized in 50 volumes of 50 mM Tris buffer (pH-8.0) containing 0.005% Triton X-100. Upon addition of 0.01% hydrogen peroxide and 10 mM O-phenylenediamine (final concentrations) in Tris buffer, increase in absorbance was monitored for one minute at 450 nm. The presence of eosonophils in the uterus is an indication of estrogenic activity of a compound. The maximal velocity of a 15 second interval was determined over the initial, linear portion of the reaction curve.
As is expressed in the below data, estrogenicity also was assessed by evaluating the adverse response of eosinophil infiltration into the uterus.
as §3

[5] = test system: Distal Femur Metaphysis; test: Osteoporosis test, distal femur metaphysis X-ray image analysis; type: in vivo, female Sprague Dawley rats (ovariectomized); settings: oral, daily for 35 days, in 20% hydroxypropyl b-cyclodextrin
From the text: Seventy-five day old female Sprague Dawley rats (weight range of 200 to 225 g) were obtained from Charles River Laboratories (Portage, Mich.). The animals were either bilaterally ovariectomized (OVX) or exposed to a Sham surgical procedure at Charles River Laboratories, and then shipped after one week. Upon arrival, they were housed in metal hanging cages in groups of 3 or 4 per cage and had ad libitum access to food (calcium content approximately 0.5%) and water for one week. Room temperature was maintained at 22.2°±1.7° C. with a minimum relative humidity of 40%. The photoperiod in the room was 12 hours light and 12 hours dark. Following the General Preparation Procedure, infra, the rats were treated daily for 35 days (6 rats per treatment group) and sacrificed by carbon dioxide asphyxiation on the 36th day. The 35 day time period was sufficient to allow maximal reduction in bone density, measured as described herein. At the time of sacrifice, the uteri were removed, dissected free of extraneous tissue, and the fluid contents were expelled before determination of wet weight in order to confirm estrogen deficiency associated with complete ovariectomy. […] The uteri were then placed in 10% neutral buffered formalin to allow for subsequent histological analysis. The right femurs were excised and digitilized x-rays generated and analyzed by an image analysis program (NIH image) at the distal metaphysis. The proximal aspect of the tibiae from these animals were also scanned by quantitative computed tomography. In accordance with the above procedures, compounds of the present invention and ethynyl estradiol (EE2) in 20% hydroxypropyl b-cyclodextrin were orally administered to test animals. Distal femur metaphysis data presented in Tables 2 and 3 below are the results of formula I compound treatments compared to intact and ovariectomized test animals. Results are reported as percent protection relative to ovariectomy.

pIC50 [2]	Compound	inhibition in vivo at 0.1 mg/kg [1]	inhibition in vivo at 1 mg/kg [1]	change in vivo at 0.1 mg/kg [3]	change in vivo at 1 mg/kg [3]	Uterine EPO (V. max) ([4]; 0.1 mg/kg)	Uterine EPO (V. max) ([4]; 1.0 mg/kg)	inhibition in vivo at 10 mg/kg [1]	change in vivo at 10 mg/kg [3]	Distal Femur Metaphysis (X-ray Image Analysis-Gray Score), percent protection relative to ovariectomy ([5]; 0.01 mg/kg)	Distal Femur Metaphysis (X-ray Image Analysis-Gray Score), percent protection relative to ovariectomy ([5]; 0.1 mg/kg)	Distal Femur Metaphysis (X-ray Image Analysis-Gray Score), percent protection relative to ovariectomy ([5]; 1.0 mg/kg)	Distal Femur Metaphysis (X-ray Image Analysis-Gray Score), percent protection relative to ovariectomy ([5]; 10.0 mg/kg)	Uterine EPO (V. max) ([4]; 10.0 mg/kg)
6.00	CCCCS(=O)(=O)Oc1ccc2c(c1)OC(c1ccc(OCCN3CCCCC3)cc1)c1c-2sc2cc(OS(=O)(=O)CCCC)ccc12 (stereo not drawn) [Example 5, 3,9-Bis(1-butylsulfonyloxy)-6-[4-[2-(1-piperidinyl)ethoxy]phenyl]-6-H-[1]benzothieno[3,2-c][1]benzopyran]	-9%	61.3%	-5.1%	18.6%	4.5	4.8	–	–	–	–	–	–	–
6.30	O=S(=O)(Oc1ccc2c(c1)OC(c1ccc(OCCN3CCCCC3)cc1)c1c-2sc2cc(OS(=O)(=O)C(F)(F)F)ccc12)C(F)(F)F (stereo not drawn) [Example 6, 3,9-Bis(trifluoromethanesulfonyloxy)-6-[4-[2-(1-piperidinyl)ethoxy]phenyl]-6-H-[1]benzothieno[3,2-c][1]benzopyran]	-2.5%	9.9%	23%	6.4%	4.2	1.8	-11.4%	50%	–	–	–	–	3.6

Continued, compound first:

Compound	pIC50 [2]	inhibition in vivo at 0.1 mg/kg [1]	inhibition in vivo at 1 mg/kg [1]	change in vivo at 0.1 mg/kg [3]	change in vivo at 1 mg/kg [3]	Uterine EPO (V. max) ([4]; 0.1 mg/kg)	Uterine EPO (V. max) ([4]; 1.0 mg/kg)	inhibition in vivo at 10 mg/kg [1]	change in vivo at 10 mg/kg [3]	Distal Femur Metaphysis (X-ray Image Analysis-Gray Score), percent protection relative to ovariectomy ([5]; 0.01 mg/kg)	Distal Femur Metaphysis (X-ray Image Analysis-Gray Score), percent protection relative to ovariectomy ([5]; 0.1 mg/kg)	Distal Femur Metaphysis (X-ray Image Analysis-Gray Score), percent protection relative to ovariectomy ([5]; 1.0 mg/kg)	Distal Femur Metaphysis (X-ray Image Analysis-Gray Score), percent protection relative to ovariectomy ([5]; 10.0 mg/kg)	Uterine EPO (V. max) ([4]; 10.0 mg/kg)
Oc1ccc2c(c1)OC(c1ccc(OCCN3CCCCC3)cc1)c1c-2sc2cc(O)ccc12 (stereo not drawn) [Example 1, 3,9-Dihydroxy-6-[4-[2-(1-piperidinyl)ethoxy]phenyl]-6-H-[1]benzothieno[3,2-c][1]benzopyran]	9.70	72.8%	51%	25.3%	9.2%	7.8	3.0	54.6%	5.9%	14.2%	49.8%	51.7%	48.2%	2.1
CC(C)(C)C(=O)Oc1ccc2c(c1)OC(c1ccc(OCCN3CCCCC3)cc1)c1c-2sc2cc(OC(=O)C(C)(C)C)ccc12 (stereo not drawn) [Example 4, 3,9-Bis(pivaloyloxy)-6-[4-[2-(1-piperidinyl)ethoxy]phenyl]-6-H-[1]benzothieno[3,2-c][1]benzopyran]	8.30	62.6%	48.2%	10%	15.3%	3.3	3.3	–	–	–	–	–	–	–
O=C(Oc1ccc2c(c1)OC(c1ccc(OCCN3CCCCC3)cc1)c1c-2sc2cc(OC(=O)c3ccccc3)ccc12)c1ccccc1 (stereo not drawn) [Example 3, 3,9-Bis(benzoyloxy)-6-[4-[2-(1-piperidinyl)ethoxy]phenyl]-6-H-[1]benzothieno[3,2-c][1]benzopyran]	8.52	51.5%	50.8%	32.5%	7.4%	4.2	3.0	–	–	–	–	–	–	–
